From patent publication US20220184054A1, “ANTI-VIRAL ACTIVITY OF VPS34 INHIBITORS” (priority 2020, published 2022) come the findings set out here.

The subject of data set [1] is SARS-CoV-2. Briefly: microbe, parasite or virus in culture. Type of data set: cell-based. The conditions noted are these: Severe acute respiratory syndrome coronavirus 2, A549, 48 h; read-out: IC50 for inhibition of SARS CoV-2 mediated cell killing.
A short description of data set [2]: Compound cytotoxicity (CC50) counter screen in Vero E6 cells. The conditions noted are these: African green monkey, read-out: CC50 (general cytotoxic effects in Vero E6 cells). The class given is cell-based. As for the experimental part:
Compound cytotoxicity (CC50) is assessed in a BSL-2 counter screen as follows: Host cells in media are added in 25 μl aliquots (4000 cells/well) to each well of assay ready plates prepared with test compounds as above. Cells only (100% viability) and cells treated with hyamine at 100 μM final concentration (0% viability) serve as the high and low signal controls, respectively, for cytotoxic effect in the assay. DMSO is maintained at a constant concentration for all wells (0.3%) as dictated by the dilution factor of stock test compound concentrations. After incubating plates at 37° C./5% CO2 and 90% humidity for 72 hours, 30 μl Cell Titer-Glo (Promega) is added to each well. Luminescence is read using a BMG PHERAstar plate reader following incubation at room temperature for 10 minutes to measure cell viability.
In general terms: The purpose of a counterscreen is to sort out artefacts and off-target activity.

The nature of data set [3]: in vitro. The conditions noted are these: human.
In data set [4] the test system is SARS CoV-2 (USA_WA1/2020). Kind of data set: SARS CoV-2 CPE assay for antiviral activity (Vero E6 host cells, Cell Titer-Glo). The class given is cell-based. The conditions noted are these: read-out: IC50 for inhibition of SARS CoV-2 mediated cell killing. On the technique in general: In ATP-based viability assays light output follows the ATP content of the culture.

Where [5] appears, read: Vero C1008, Vero E6 cells, 10-point dose response, high concentration 15 μM, 72 hours.

Molecules are shown by their SMILES. Read-outs that look alike come from different tables or passages of the source. Where only a bound is given, the exact number is not on record here.

As a reminder, the IC50 is the concentration at which inhibition is half-maximal. Consider `O=c1cc(-c2ccnc3[nH]c(C4CC4)cc23)cc(N2CCCCC2C(F)(F)F)[nH]1` (stereo not shown) [Compound 3], for which the figures for the concentration for half-maximal inhibition (IC50) in data set [1] and in data set [4] (setting [5]) were 29 nM and 114 nM, respectively. In addition, the CC50 at 72 h in data set [2] came out at 2830 nM. Further, the CC50 in data set [3] came to 482 nM.
In the same order, the values of `N#Cc1cc2c(-c3cc(-c4ccccc4C(F)(F)F)[nH]c(=O)c3)ccnc2[nH]1` [Compound 2] are 1570 nM, 3010 nM, more than 10000 nM and more than 10000 nM.
Regarding `Cc1ccc(-c2cc3c(-c4cc(N5CCOCC5C(F)(F)F)[nH]c(=O)c4)ccnc3[nH]2)s1` (stereo not shown) [Compound 4], the IC50 is 158 nM in data set [1] and 1040 nM in data set [4] (Vero C1008, 72 h). Also, the CC50 at 72 h in data set [2] is 1430 nM. In addition, the CC50 in data set [3] stood at 411 nM.
For `O=c1cc(-c2ccnc3[nH]ncc23)cc(N2CCCCC2C(F)(F)F)[nH]1` (stereo not shown) [Compound 1], the IC50 in data set [1] stood at 510 nM; in data set [4] (setting [5]), 470 nM. Further, the CC50 at 72 h in data set [2] was 15000 nM. The same molecule showed a CC50 in data set [3] of 8000 nM.
